Some test systems named below: A549 NSCLC; HCT-116 colon; OVCAR-8 ovarian; PC-3 prostate; SF-268 CNS; SK-OV-3 ovarian; TK-10 renal; UACC-62 melanoma; NCI-H460 lung.
Test in all cases: NCI anticancer screen, dose series, 48 h

Here are results for 19 compounds from PubChem BioAssay (NCI).

Where “and” joins values, the source holds several entries; their conditions need not be identical. Equal values may be shown once.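 Results reflect a 48-hour exposure of cells in 96-well plates to compound at five concentrations. The concentration for 50% growth inhibition is given as GI50. TGI is the concentration that stops growth completely.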

`O=C1C[C@@H](c2ccccc2)NCCCCN(O)CCCN1`: the TGI with A549 NSCLC, with HCT-116 colon, with OVCAR-8 ovarian, in the test with PC-3 prostate, in the test on SF-268 CNS and with SK-OV-3 ovarian was greater than 100 µM throughout. Also, the TGI in the test with TK-10 renal and in the test with UACC-62 melanoma was greater than 100 µM throughout.
As to `COc1cc2c(cc1OCCCCCCNC(=O)c1cc3ccccc3[nH]1)N=CC1CCCN1C2=O` (configuration not stated), the GI50 was 39 µM in the test with A549 NSCLC; 45.6 µM with HCT-116 colon; 16.8 µM in the test with NCI-H460 lung; 30.5 µM in the test with OVCAR-8 ovarian; 36 µM in the test with PC-3 prostate; 6.8 µM in the test with SF-268 CNS. Moreover, the GI50 was 64.8 µM in the test with SK-OV-3 ovarian, 20.7 µM in the test on TK-10 renal and 39.5 µM in the test with UACC-62 melanoma. The TGI in the test on A549 NSCLC is greater than 100 µM; with HCT-116 colon, greater than 100 µM; in the test with NCI-H460 lung, 62.7 µM; in the test with OVCAR-8 ovarian it was greater than 100 µM; in the test with PC-3 prostate it was greater than 100 µM; in the test on SF-268 CNS, 26 µM. The results for the TGI in the test with SK-OV-3 ovarian, with TK-10 renal and in the test on UACC-62 melanoma were greater than 100 µM, 93.6 µM and greater than 100 µM, respectively.
As to `CC(C)[C@@H](C(=O)O[C@@H]1/C=C/C(=O)O[C@@H](C)CCC/C=C/[C@@H]2C[C@H](O)C[C@H]21)[N+](C)(C)C`, the GI50 in the test with A549 NSCLC, with HCT-116 colon, with NCI-H460 lung, in the test with OVCAR-8 ovarian, with PC-3 prostate and with SF-268 CNS was greater than 100 µM each time. Besides, the GI50 with SK-OV-3 ovarian, in the test with TK-10 renal and in the test with UACC-62 melanoma was greater than 100 µM each time. Further, the TGI in the test with A549 NSCLC, with HCT-116 colon, in the test on NCI-H460 lung, in the test with OVCAR-8 ovarian, in the test with PC-3 prostate and with SF-268 CNS was greater than 100 µM each time. Also, the TGI in the test on SK-OV-3 ovarian, with TK-10 renal and in the test with UACC-62 melanoma was greater than 100 µM in each case.
Take `Cn1cc2ccccc2c1-c1nc(F)nc(Oc2ccc3c(c2)CC[C@@H]2C3CC[C@]3(C)C(O)CCC23)n1` (some centres not stated): the TGI worked out at 48.9 µM with A549 NSCLC; 35.8 µM with HCT-116 colon; 36 µM with OVCAR-8 ovarian; 35.1 µM in the test with SF-268 CNS; 36.3 µM in the test on SK-OV-3 ovarian; 31.7 µM in the test with TK-10 renal.
Take `CCN(CC)c1ccc(/C=C/C(=O)c2cccc(NS(C)(=O)=O)c2)cc1`: the GI50 in the test on A549 NSCLC is greater than 100 µM; in the test on HCT-116 colon, 3.99 µM; with NCI-H460 lung it was 4.72 µM; in the test on OVCAR-8 ovarian it was greater than 100 µM; in the test on PC-3 prostate it was 6.35 µM; in the test with SF-268 CNS it was 18.5 µM. The GI50 in the test with SK-OV-3 ovarian is 5.27 µM; with TK-10 renal it was 7.53 µM. The TGI in the test with A549 NSCLC, in the test on HCT-116 colon, with NCI-H460 lung, in the test on OVCAR-8 ovarian, with PC-3 prostate and in the test on SF-268 CNS was greater than 100 µM each time. Further, the TGI in the test with SK-OV-3 ovarian and in the test on TK-10 renal was greater than 100 µM in each case.
As to `COc1cc(Nc2ncc3c(n2)-c2ccc(Cl)cc2C(c2c(F)cccc2OC)=NC3)ccc1C(=O)O`, the GI50 with A549 NSCLC is 0.505 µM; in the test on NCI-H460 lung, 0.0412 µM; in the test with OVCAR-8 ovarian, 8.94 µM; in the test on PC-3 prostate, 7.87 µM; in the test on SF-268 CNS, 9.51 µM; in the test on SK-OV-3 ovarian, 10.6 µM. In addition, the results for the GI50 in the test on TK-10 renal and in the test with UACC-62 melanoma were 4.61 µM and 3.9 µM, respectively. Also, the TGI was 37.8 µM in the test on A549 NSCLC; greater than 83.6 µM in the test with NCI-H460 lung; greater than 100 µM in the test with OVCAR-8 ovarian; 70.4 µM in the test with PC-3 prostate; 92.8 µM in the test on SF-268 CNS; 44 µM in the test on SK-OV-3 ovarian. The TGI came out at 24.4 µM in the test on TK-10 renal and 30.1 µM with UACC-62 melanoma.
For `COc1cc2c(c3oc(-c4ccc5c(c4)OCO5)c(O)c(=O)c13)CCC(C)(C)O2`, the TGI in the test with A549 NSCLC, in the test with OVCAR-8 ovarian, in the test on SK-OV-3 ovarian, in the test with TK-10 renal and in the test with UACC-62 melanoma was greater than 100 µM in each case.
Consider `CSc1nc(Cl)c(Br)c(Nc2c[nH]c(=O)[nH]c2=O)n1`, for which the TGI with A549 NSCLC amounted to 89.5 µM; with HCT-116 colon it was 29.3 µM; with OVCAR-8 ovarian, 30.4 µM; in the test on PC-3 prostate, 45.8 µM; in the test with SK-OV-3 ovarian, 42.7 µM; with TK-10 renal, 40 µM. For the same compound, the TGI in the test with UACC-62 melanoma came to 31.4 µM.
For `CC1=C(C(=O)Nc2ccccc2C)C(c2ccc(N(C)C)cc2)C(C(=O)Nc2ccccc2C)=C(C)N1`, the TGI in the test with A549 NSCLC, in the test on HCT-116 colon, in the test on NCI-H460 lung, with OVCAR-8 ovarian, in the test with SF-268 CNS and with SK-OV-3 ovarian was greater than 100 µM throughout. The TGI in the test on TK-10 renal and in the test on UACC-62 melanoma was greater than 100 µM each time.
With `COc1ccc2oc(-c3ccncc3)cc(=O)c2c1`, the TGI in the test on HCT-116 colon, in the test with NCI-H460 lung, in the test on SF-268 CNS and with UACC-62 melanoma was greater than 100 µM throughout.
For `CCCNC(=O)c1cc2ccccc2cc1C(=O)OC`, the TGI in the test on A549 NSCLC, in the test with HCT-116 colon, in the test with NCI-H460 lung, in the test on OVCAR-8 ovarian, in the test on SF-268 CNS and in the test with SK-OV-3 ovarian was greater than 100 µM throughout. In addition, the TGI in the test with TK-10 renal and with UACC-62 melanoma was greater than 100 µM throughout.
Consider `NNC(=O)CC(=O)Nc1ccccc1F`, for which the TGI in the test with A549 NSCLC, in the test on HCT-116 colon, with NCI-H460 lung, in the test on OVCAR-8 ovarian, in the test with SF-268 CNS and in the test with SK-OV-3 ovarian was greater than 100 µM throughout. The compound also yielded a TGI in the test with UACC-62 melanoma greater than 100 µM.
As to `COc1cc(C)c(C(=O)/C=C/c2cc(OC)c(O)c(OC)c2)cc1O`, the TGI is greater than 100 µM in the test with A549 NSCLC; 27 µM in the test on HCT-116 colon; greater than 100 µM in the test with NCI-H460 lung; greater than 100 µM in the test on OVCAR-8 ovarian; 78.4 µM with SF-268 CNS; 85.1 µM in the test with SK-OV-3 ovarian. The TGI is greater than 100 µM with TK-10 renal and 44.1 µM in the test on UACC-62 melanoma.
Turning to `CC[C@](O)(C(=O)O)c1cc2n(c(=O)c1CO)Cc1cc3ccccc3nc1-2`, the GI50 in the test on A549 NSCLC was 0.0057 µM and < 0.0178 µM; in the test on NCI-H460 lung, less than 0.0025 µM; in the test on OVCAR-8 ovarian it was 0.0292 µM and 0.0262 µM and 0.0353 µM; in the test on PC-3 prostate it was 0.113 µM; in the test on SK-OV-3 ovarian, 0.0283 µM and 0.0176 µM; with TK-10 renal, 1.1 µM. For the same compound, the GI50 in the test with UACC-62 melanoma is 0.00348 µM. Moreover, the TGI was 2.6 µM and 1.48 µM and 0.42 µM in the test with A549 NSCLC; 0.622 µM with HCT-116 colon; 0.0234 µM and 0.125 µM and 0.0345 µM in the test with NCI-H460 lung; 5.17 µM with PC-3 prostate; 4.38 µM and > 24.8 µM with TK-10 renal; 0.121 µM and 0.0422 µM and 0.0555 µM with UACC-62 melanoma.
As for `CC1SC2=NC3=C(c4ccccc4C3=O)C(c3ccc(Br)cc3)N2C1=O` (configuration not stated), the TGI with A549 NSCLC, in the test with NCI-H460 lung, in the test on OVCAR-8 ovarian, in the test with SF-268 CNS, in the test on SK-OV-3 ovarian and in the test with TK-10 renal was greater than 100 µM throughout. The compound further gave a TGI in the test with UACC-62 melanoma greater than 100 µM.
`O=C1Cc2ccccc2N1/N=C\c1ccc(O)cc1`: the TGI in the test on A549 NSCLC, in the test with HCT-116 colon, in the test on NCI-H460 lung, in the test on OVCAR-8 ovarian, in the test with SF-268 CNS and with SK-OV-3 ovarian was greater than 100 µM each time. Further, the TGI with TK-10 renal and with UACC-62 melanoma was greater than 100 µM each time.
For the compound `O=C(O)c1cn(C2CC2)c2cc(N3CCN(S(=O)(=O)c4ccc(Cl)c(Cl)c4)CC3)c(F)cc2c1=O`, the GI50 was 3.08 µM in the test on A549 NSCLC; 3.86 µM in the test on HCT-116 colon; 3.66 µM in the test on NCI-H460 lung; 3.33 µM in the test with OVCAR-8 ovarian; 4.77 µM with SF-268 CNS; 4.31 µM in the test with TK-10 renal. The TGI in the test on A549 NSCLC, with HCT-116 colon, with NCI-H460 lung, in the test on OVCAR-8 ovarian, with SF-268 CNS and with TK-10 renal was greater than 100 µM in each case.
Turning to `COc1cc(C/C=C/c2ccccc2)c(OC)cc1O`, the TGI in the test with A549 NSCLC is greater than 100 µM; with HCT-116 colon it was 31.1 µM; with NCI-H460 lung it was 39.7 µM; in the test with OVCAR-8 ovarian, 37 µM; in the test on PC-3 prostate, 67.2 µM; with SF-268 CNS, 59.4 µM. Besides, the TGI with TK-10 renal was 38.6 µM; with UACC-62 melanoma it was 37.7 µM.
With `CC1=C[C@H]2c3c(c(O)c(O)c4oc5cc(O)cc(O)c5c(=O)c34)[C@H](c3cc(O)c(O)c4oc5cc(O)cc(O)c5c(=O)c34)[C@H]2C(C)(C)C1`, the GI50 in the test on A549 NSCLC was 0.686 µM and 1.67 µM; in the test with HCT-116 colon it was 0.462 µM and 0.947 µM; in the test on OVCAR-8 ovarian, 2.38 µM and 3.39 µM; with PC-3 prostate, 1.96 µM and 1.8 µM; in the test with SF-268 CNS it was 2.14 µM and 2.09 µM; in the test with SK-OV-3 ovarian, 2.05 µM and 2.27 µM. For the same compound, the GI50 with TK-10 renal is 2.12 µM and 3.06 µM; in the test with UACC-62 melanoma it was 1.18 µM and 1.31 µM. Also, the TGI in the test with A549 NSCLC was 6.17 µM and 24.9 µM; with HCT-116 colon, 1.87 µM and 2.22 µM; in the test with PC-3 prostate, 7.41 µM and 5.46 µM; in the test with SF-268 CNS it was 11.3 µM and 11.8 µM; in the test on SK-OV-3 ovarian, 5.13 µM and 8.28 µM; in the test with TK-10 renal, 10.5 µM and 14.8 µM. Further, the TGI with UACC-62 melanoma was 2.59 µM and 3.07 µM.
